Source: patent US20240150377A1, “MODULATORS OF CYSTIC FIBROSIS TRANSMEMBRANE CONDUCTANCE REGULATOR” (VERTEX PHARMACEUTICALS INCORPORATED, priority 2020, published 2024)

Biological target: T1, CFTR (Homo sapiens, UniProt P13569, DEL508-508)
T1 construct: endogenous in cells; host or cells: primary human bronchial epithelial cells from CF subjects (F508del/MF-HBE), differentiated at air-liquid interface
Assay: HBE2 assay: Ussing chamber assay of CFTR-mediated short-circuit currents
Format: cell-based
Conditions: F508del/MF-HBE cells, with 44 nM potentiator, 18-24 hours, 20% human serum; for Emax: read-out: HBE2 Max activity (%)
In short: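 F508del/MF-HBE cultured >14 days at air-liquid interface, mounted in Ussing chambers; transepithelial short-circuit current recorded under voltage clamp (Vhold=0 mV) at 37 °C. CFTR-mediated ISC (μA/cm^2) taken as peak forskolin response relative to steady-state current after inhibition; corrector activity assessed this way.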

T1 sequence (P13569 with tags, fused parts or gaps DEL508-508): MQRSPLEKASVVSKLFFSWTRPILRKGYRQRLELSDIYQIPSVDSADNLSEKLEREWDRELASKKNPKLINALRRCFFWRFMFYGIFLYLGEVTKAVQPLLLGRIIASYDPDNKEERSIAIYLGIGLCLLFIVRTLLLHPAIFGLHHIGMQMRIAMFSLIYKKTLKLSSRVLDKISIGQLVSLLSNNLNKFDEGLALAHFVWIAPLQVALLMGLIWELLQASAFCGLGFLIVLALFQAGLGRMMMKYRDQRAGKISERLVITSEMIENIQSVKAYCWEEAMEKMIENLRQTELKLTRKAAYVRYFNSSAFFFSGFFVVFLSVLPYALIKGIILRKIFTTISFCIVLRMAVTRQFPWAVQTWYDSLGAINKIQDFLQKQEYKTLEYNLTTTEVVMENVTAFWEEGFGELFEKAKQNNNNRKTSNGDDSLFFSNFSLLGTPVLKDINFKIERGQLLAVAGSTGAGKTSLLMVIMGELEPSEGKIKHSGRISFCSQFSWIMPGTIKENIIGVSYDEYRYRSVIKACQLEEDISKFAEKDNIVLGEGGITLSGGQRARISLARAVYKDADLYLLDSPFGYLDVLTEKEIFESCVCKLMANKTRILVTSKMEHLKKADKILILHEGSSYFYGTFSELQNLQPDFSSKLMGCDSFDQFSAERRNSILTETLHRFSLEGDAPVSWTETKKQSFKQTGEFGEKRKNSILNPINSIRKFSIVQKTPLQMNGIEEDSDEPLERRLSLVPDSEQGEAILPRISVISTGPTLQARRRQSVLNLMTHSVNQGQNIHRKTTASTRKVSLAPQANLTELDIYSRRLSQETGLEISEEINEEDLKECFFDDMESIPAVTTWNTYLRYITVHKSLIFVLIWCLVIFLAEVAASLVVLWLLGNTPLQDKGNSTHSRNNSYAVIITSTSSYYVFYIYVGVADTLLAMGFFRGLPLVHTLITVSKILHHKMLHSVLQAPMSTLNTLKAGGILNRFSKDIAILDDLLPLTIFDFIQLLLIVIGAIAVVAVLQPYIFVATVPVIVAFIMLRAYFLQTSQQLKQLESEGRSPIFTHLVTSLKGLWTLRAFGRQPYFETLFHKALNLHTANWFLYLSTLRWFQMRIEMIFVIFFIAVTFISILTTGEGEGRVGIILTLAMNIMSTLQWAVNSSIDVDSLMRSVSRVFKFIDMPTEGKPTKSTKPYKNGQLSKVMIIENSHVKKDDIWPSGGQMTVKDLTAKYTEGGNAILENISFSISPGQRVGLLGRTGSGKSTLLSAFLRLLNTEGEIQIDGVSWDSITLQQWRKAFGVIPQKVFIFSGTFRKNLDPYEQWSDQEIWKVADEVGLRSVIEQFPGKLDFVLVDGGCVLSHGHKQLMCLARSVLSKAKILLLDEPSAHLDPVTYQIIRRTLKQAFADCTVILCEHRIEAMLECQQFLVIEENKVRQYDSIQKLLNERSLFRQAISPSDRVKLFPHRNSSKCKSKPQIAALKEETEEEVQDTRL

SMILES | HBE2 Activity at 3 μM (%) (3 μM corrector) | HBE2 Activity at 3 μM (%) (3 μM) | other results
Cc1cccc(C)c1-c1cc2nc(n1)NS(=O)(=O)c1cccc(c1)C(=O)N(Cc1cccc([C@@H](C)N3CCCC3)n1)[C@H](CC(C)(C)C)CO2 [Compound 1589] |  | ++ (++ is 30-60%) | 
Cc1cccc(C)c1-c1cc2nc(n1)NS(=O)(=O)c1cccc(c1)C(=O)N(Cc1cncc(N(C)C3CCC3)n1)[C@H](CC(C)(C)C(F)(F)F)CO2 [Compound 1689] |  | +++ (+++ is >60+) | EC50: < 1000 nM; Emax: > 60%
Cc1cccc(C)c1-c1cc2nc(n1)NS(=O)(=O)c1cccc(c1)C(=O)N(Cc1ncc(OC3CCCC3)c[n+]1[O-])[C@H](CC(C)C)CO2 [Compound 1305, (11R)-12-[[5-(Cyclopentoxy)-1-oxido-pyrimidin-1-ium-2-yl]methyl]-6-(2,6-dimethylphenyl)-11-isobutyl-2,2-dioxo-9-oxa-2λ^6-thia-3,5,12,19-tetrazatricyclo[12.3.1.14,8]nonadeca-1(18),4(19),5,7,14,16-hexaen-13-one] |  | +++ (+++ is >60+) | 
Cc1cccc(C)c1-c1cc2nc(n1)NS(=O)(=O)c1cccc(c1)C(=O)N(Cc1cncc(N(C)C3CCC3)n1)[C@H](CCC1(C)CC1)CO2 [Compound 1336, 12-[[6-[cyclobutyl(methyl)amino]pyrazin-2-yl]methyl]-6-(2,6-dimethylphenyl)-11-[2-(1-methylcyclopropyl)ethyl]-2,2-dioxo-9-oxa-2λ^6-thia-3,5,12,19-tetrazatricyclo[12.3.1.14,8]nonadeca-1(18),4(19),5,7,14,16-hexaen-13-one] | +++ (+++ is >60+) |  | 
CC(=O)N(C)c1cccc(CN2C(=O)c3cccc(c3)S(=O)(=O)Nc3nc(cc(-c4c(C)cccc4C)n3)OC[C@H]2CC(C)(C)C)n1 [Compound 1583] |  | +++ (+++ is >60+) | 
Cc1cccc(C)c1-c1cc2nc(n1)NS(=O)(=O)c1cccc(c1)C(=O)N(Cc1cccc([C@@H](C)N3CCCC3)n1)[C@H](CC(C)(C)C)CO2 [Compound 1588] |  | +++ (+++ is >60+) | 
CCc1ccnc(CN2C(=O)c3cccc(c3)S(=O)(=O)Nc3nc(cc(-c4c(C)cccc4C)n3)OC[C@H]2CC(C)(C)C)n1 [Compound 1302, (11R)-6-(2,6-Dimethylphenyl)-11-(2,2-dimethylpropyl)-12-[(4-ethylpyrimidin-2-yl)methyl]-2,2-dioxo-9-oxa-2λ^6-thia-3,5,12,19-tetrazatricyclo[12.3.1.14,8]nonadeca-1(18),4,6,8(19),14,16-hexaen-13-one] |  | +++ (+++ is >60+) | 
Cc1cccc(C)c1-c1cc2nc(n1)NS(=O)(=O)c1cccc(c1)C(=O)N(Cc1cncc(N(C)C3CCC3)n1)[C@H](COC(C)C)CO2 [Compound 1324, (11R)-12-[[6-[Cyclobutyl(methyl)amino]pyrazin-2-yl]methyl]-6-(2,6-dimethylphenyl)-11-(isopropoxymethyl)-2,2-dioxo-9-oxa-2λ^6-thia-3,5,12,19-tetrazatricyclo[12.3.1.14,8]nonadeca-1(18),4(19),5,7,14,16-hexaen-13-one] | +++ (+++ is >60+) |  | 
Cc1cccc(C)c1-c1cc2nc(n1)NS(=O)(=O)c1cccc(c1)C(=O)N(Cc1cnc3cc(C(C)C)n(C)c3n1)[C@H](CC1CCCC1)CO2 [Compound 1334, (11R)-11-(Cyclopentylmethyl)-6-(2,6-dimethylphenyl)-12-[(6-isopropyl-5-methyl-pyrrolo[2,3-b]pyrazin-3-yl)methyl]-2,2-dioxo-9-oxa-2λ^6-thia-3,5,12,19-tetrazatricyclo[12.3.1.14,8]nonadeca-1(18),4(19),5,7,14,16-hexaen-13-one] | +++ (+++ is >60+) |  | 
Cc1cccc(C)c1-c1cc2nc(n1)NS(=O)(=O)c1cccc(c1)C(=O)N(Cc1ncc(OC(C)C)cn1)[C@H]([C@H](C)C1CC1)CO2 (stereo in doubt) [Compound 1558] |  | +++ (+++ is >60+) | 
COC(=O)N(C)c1cncc(CN2C(=O)c3cccc(c3)S(=O)(=O)Nc3nc(cc(-c4c(C)cccc4C)n3)OC[C@H]2CC(C)(C)C)n1 [Compound 1582] |  | +++ (+++ is >60+) | 
Cc1cccc(C)c1-c1cc2nc(n1)NS(=O)(=O)c1cccc(c1)C(=O)N(Cc1cncc(N3CC[C@H]3C3CCC3)n1)[C@H](CC(C)(C)C)CO2 (stereo in doubt) [Compound 1637] |  | +++ (+++ is >60+) | 
Cc1cccc(C)c1-c1cc2nc(n1)NS(=O)(=O)c1cccc(c1)C(=O)N(Cc1cncc(N3C(=O)OC[C@H]3C)n1)[C@H](CC(C)(C)C)CO2 [Compound 1653] |  | +++ (+++ is >60+) | 
CO[C@H]1C[C@H](CN(C)c2cncc(CN3C(=O)c4cccc(c4)S(=O)(=O)Nc4nc(cc(-c5c(C)cccc5C)n4)OC[C@H]3CC(C)(C)C)n2)C1 (stereo in doubt) [Compound 1632] |  | +++ (+++ is >60+) | EC50: < 1000 nM; Emax: > 60%
CCCN(C)c1cncc(CN2C(=O)c3cccc(c3)S(=O)(=O)Nc3nc(cc(-c4c(C)cccc4C)n3)OC[C@H]2CC(C)(C)C)n1 [Compound 1694] |  | +++ (+++ is >60+) | 
Cc1cccc(C)c1-c1cc2nc(n1)NS(=O)(=O)c1cccc(c1)C(=O)N(Cc1cncc(N3CCCC3C)n1)[C@H](C1CC(C)(C)C1)CO2 (single isomer, unassigned) [Compound 1338] | +++ (+++ is >60+) |  | 
Cc1cccc(C)c1-c1cc2nc(n1)NS(=O)(=O)c1cccc(c1)C(=O)N(Cc1cncc(N(C)C3CCC3)n1)[C@H](CC(C)(C)C)CO2 [Compound 1310, (11R)-12-[[6-[Cyclobutyl(methyl)amino]pyrazin-2-yl]methyl]-6-(2,6-dimethylphenyl)-11-(2,2-dimethylpropyl)-2,2-dioxo-9-oxa-2λ^6-thia-3,5,12,19-tetrazatricyclo[12.3.1.14,8]nonadeca-1(18),4(19),5,7,14,16-hexaen-13-one] |  | +++ (+++ is >60+) | EC50: < 1000 nM; Emax: > 60%
Cc1cccc(C)c1-c1cc2nc(n1)NS(=O)(=O)c1cccc(c1)C(=O)N(Cc1cncc(N3CCCC3C(=O)N(C)C)n1)[C@H](CC(C)(C)C)CO2 (stereo partly shown) [Compound 1660] |  | +++ (+++ is >60+) | 
Cc1cccc(C)c1-c1cc2nc(n1)NS(=O)(=O)c1cccc(c1)C(=O)N(Cc1cncc(N(C)[C@@H]3C[C@H]4COC[C@H]43)n1)[C@H](CC(C)(C)C)CO2 (stereo in doubt) [Compound 1677] |  | +++ (+++ is >60+) | 

Second part, led by results:

HBE2 Activity at 3 μM (%) (3 μM corrector) | HBE2 Activity at 3 μM (%) (3 μM) | SMILES | other results
+++ (+++ is >60+) |  | Cc1cccc(C)c1-c1cc2nc(n1)NS(=O)(=O)c1cccc(c1)C(=O)N(Cc1cncc(N(C)C3CCC3)n1)[C@H](CC1CCCC1)CO2 [Compound 1844] | 
+++ (+++ is >60+) |  | Cc1cccc(C)c1-c1cc2nc(n1)NS(=O)(=O)c1cccc(c1)C(=O)N(Cc1cnc3cc(C(C)C)n(C)c3n1)[C@H](CC1CCCCC1)CO2 [Compound 1934] | 
+++ (+++ is >60+) |  | Cc1cccc(C)c1-c1cc2nc(n1)NS(=O)(=O)c1cccc(c1)C(=O)N(Cc1cncc(N(C)C3CCC3)n1)[C@H](C[C@H]1CCCOC1)CO2 (stereo in doubt) [Compound 1938] | 
+++ (+++ is >60+) |  | Cc1cccc(C)c1-c1cc2nc(n1)NS(=O)(=O)c1cccc(c1)C(=O)N(Cc1cncc(N(C)CC(C)C)n1)[C@H](COC1CC1)CO2 [Compound 1903] | 
+++ (+++ is >60+) |  | Cc1cccc(C)c1-c1cc2nc(n1)NS(=O)(=O)c1cccc(c1)C(=O)N(Cc1cncc(N3CC(C)(C)[C@H]3C(C)C)n1)[C@H](CC(C)(C)C)CO2 (stereo in doubt) [Compound 1751] | 
+++ (+++ is >60+) |  | Cc1cccc(C)c1-c1cc2nc(n1)NS(=O)(=O)c1cccc(c1)C(=O)N(Cc1cncc(N3CCCC[C@H]3C)n1)[C@H](CCC(C)C)CO2 [Compound 1749] | 
+++ (+++ is >60+) |  | Cc1cccc(C)c1-c1cc2nc(n1)NS(=O)(=O)c1cccc(c1)C(=O)N(Cc1cccc(N3CCC[C@H]3C(C)C)n1)[C@H](CC1(C)CCC1)CO2 [Compound 1776] | 
+++ (+++ is >60+) |  | Cc1cccc(C)c1-c1cc2nc(n1)NS(=O)(=O)c1cccc(c1)C(=O)N(Cc1cncc(N(C)CC(C)(C)F)n1)[C@H](CCC(C)(C)C)CO2 [Compound 1818] | 
+++ (+++ is >60+) |  | Cc1cccc(C)c1-c1cc2nc(n1)NS(=O)(=O)c1cccc(c1)C(=O)N(Cc1cncc(N3CC[C@@H]4CC[C@@H]43)n1)[C@H](CCC1CC1)CO2 [Compound 1922] | 
+++ (+++ is >60+) |  | Cc1cccc(C)c1-c1cc2nc(n1)NS(=O)(=O)c1cccc(c1)C(=O)N(Cc1ncc(OC3CCC3)cc1F)[C@H](COC(C)C)CO2 [Compound 1953] | 
+++ (+++ is >60+) |  | Cc1cccc(C)c1-c1cc2nc(n1)NS(=O)(=O)c1cccc(c1)C(=O)N(Cc1cncc(N3CC(F)(F)[C@H]3C)n1)[C@H](CC(C)(C)C)CO2 [Compound 1769] | 
+++ (+++ is >60+) |  | Cc1cccc(C)c1-c1cc2nc(n1)NS(=O)(=O)c1cccc(c1)C(=O)N(Cc1cncc(N3CCC4CCC43)n1)[C@H](COC1CC1)CO2 (stereo in doubt) [Compound 1909] | 
+++ (+++ is >60+) |  | Cc1cccc(C)c1-c1cc2nc(n1)NS(=O)(=O)c1cccc(c1)C(=O)N(Cc1cncc(N3CCCC[C@H]3C)n1)[C@H](CC(C)(C)F)CO2 [Compound 1805] | 
+++ (+++ is >60+) |  | Cc1cccc(C)c1-c1cc2nc(n1)NS(=O)(=O)c1cccc(c1)C(=O)N(Cc1cncc(N(C)C3CC(F)(F)C3)n1)[C@H](COC(C)C)CO2 [Compound 1946] | 
+++ (+++ is >60+) |  | Cc1cccc(C)c1-c1cc2nc(n1)NS(=O)(=O)c1cccc(c1)C(=O)N(Cc1cncc(N3CCC[C@H]3C)n1)[C@H](COC(C)C)CO2 [Compound 1937] | 
